Data reported in ChEMBL document CHEMBL1201862, “PubChem BioAssay data set” (2004).
The source made the active and inactive calls.

Columns and labels:
[1] = nonselective inhibitors of cellular cAMP signaling, dose response, counter-screen for MC4R biased antagonist project, cell-based, TR-FRET cAMP detection (AID 602305); type: functional;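 note: U2OS cells stimulated with forskolin near its EC80 as the cAMP inducer; potency is for inhibition of forskolin-stimulated cAMP signaling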
[2] = target: Melanocortin receptor 4 (Homo sapiens, UniProt P32245); test: MC4R antagonist potency on cAMP, dose response, cell-based, TR-FRET, biased antagonists (AID 602298); type: functional;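 note: antagonist potency against agonist-stimulated cAMP production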
Melanocortin receptor 4, sequence (P32245 whole entry): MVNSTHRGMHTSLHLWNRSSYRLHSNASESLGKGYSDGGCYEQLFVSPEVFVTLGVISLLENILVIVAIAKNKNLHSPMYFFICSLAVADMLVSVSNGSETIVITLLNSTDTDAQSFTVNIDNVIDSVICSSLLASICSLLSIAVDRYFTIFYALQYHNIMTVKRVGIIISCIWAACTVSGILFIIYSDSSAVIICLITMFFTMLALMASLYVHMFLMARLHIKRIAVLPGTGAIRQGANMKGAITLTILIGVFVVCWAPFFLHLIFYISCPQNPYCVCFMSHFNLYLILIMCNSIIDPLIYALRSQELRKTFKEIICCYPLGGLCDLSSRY

Question: Which IC50 [1] does the source give for `Cc1ccc(-n2nc3ccc(NC(=S)NC(=O)/C=C/c4ccco4)cc3n2)cc1` here?
Answer: Its IC50 is > 64.6 µM (inactive).

Question: And the IC50 [2]?
Answer: Its IC50 is 55.6 µM (inactive).
